Assays:
Assay type in all cases: in vivo
Tetranychus urticae = Tetranychus urticae (Two-Spotted Spider Mite): Feeding/Contact Activity; details: foliar, 192 h, application rate of 200 ppm, sprayed bean leaf discs, mixed population (mobile stages), 8 days after infestation
Experimental: Bean leaf discs on agar in 24-well microtiter plates were sprayed with aqueous test solutions prepared from 10,000 ppm DMSO stock solutions. After drying the leaf discs were infested with a mite population of mixed ages. The samples were assessed for mortality on mixed population (mobile stages) 8 days after infestation.

Plutella xylostella = Plutella xylostella (Diamond Back Moth); details: 120 h, application rate of 200 ppm, artificial diet, L2 larvae, 5 days after infestation, read-out: effect in at least one of the two categories (mortality or growth inhibition)
Experimental: (§1) 24-well microtiter plates with artificial diet were treated with aqueous test solutions prepared from 10,000 ppm DMSO stock solutions by pipetting. After drying, the plates were infested with L2 larvae (10 to 15 per well). The samples were assessed for mortality and growth inhibition in comparison to untreated samples 5 days after infestation.

Spodoptera littoralis = Spodoptera littoralis (Egyptian Cotton Leaf Worm), sprayed cotton leaf discs; details: foliar, 72 h, application rate of 200 ppm, L1 larvae, 3 days after infestation
Experimental: Cotton leaf discs were placed onto agar in 24-well microtiter plates and sprayed with aqueous test solutions prepared from 10,000 ppm DMSO stock solutions. After drying the leaf discs were infested with five L1 larvae. The samples were assessed for mortality, anti-feeding effect, and growth inhibition in comparison to untreated samples 3 days after infestation. Control of Spodoptera littoralis by a test sample is given when at least one of the categories mortality, anti-feedant effect, and growth inhibition is higher than the untreated sample.

Myzus persicae [1] = experiment: Myzus persicae (Green Peach Aphid): Feeding/Contact Activity; details: foliar, 144 h, application rate of 200 ppm, sprayed sunflower leaf discs, aphid population of mixed ages, 6 days after infestation
Experimental: Sunflower leaf discs were placed onto agar in a 24-well microtiter plate and sprayed with aqueous test solutions prepared from 10,000 ppm DMSO stock solutions. After drying, the leaf discs were infested with an aphid population of mixed ages. The samples were assessed for mortality 6 days after infestation.

Euschistus heros = Euschistus heros (Neotropical Brown Stink Bug); details: 120 h, application rate of 200 ppm, sprayed soybean leaves, N2 nymphs, 5 days after infestation, read-out: effect in at least one of the two categories (mortality or growth inhibition)
Experimental: Soybean leaves on agar in 24-well microtiter plates were sprayed with aqueous test solutions prepared from 10,000 ppm DMSO stock solutions. After drying the leaves were infested with N2 nymphs. The samples were assessed for mortality and growth inhibition in comparison to untreated samples 5 days after infestation.

Myzus persicae [2] = experiment: Myzus persicae (Green Peach Aphid). Systemic Activity; details: 144 h, test rate of 24 ppm, roots of infested pea seedlings in test solution, 6 days
Experimental: Roots of pea seedlings infested with an aphid population of mixed ages were placed directly into aqueous test solutions prepared from 10,000 DMSO stock solutions. The samples were assessed for mortality 6 days after placing seedlings into test solutions.

Diabrotica balteata = Diabrotica balteata (Corn Root Worm); details: 96 h, application rate of 200 ppm, sprayed maize sprouts, L2 larvae, 4 days after infestation, read-out: effect in at least one of the two categories (mortality or growth inhibition)
Experimental: as §1, with “Maize sprouts placed onto an agar layer in 24-well” for “24-well”, “plates” for “plates with artificial diet”, “spraying.” for “pipetting.”, “(6” for “(10”, “10” for “15”, “4” for “5”

Bemisia tabaci = Bemisia tabaci (Cotton White Fly): Feeding/Contact Activity; details: foliar, 144 h, application rate of 200 ppm, sprayed cotton leaf discs, adult white flies, 6 days after incubation
Experimental: Cotton leaf discs were placed on agar in 24-well microtiter plates and sprayed with aqueous test solutions prepared from 10,000 ppm DMSO stock solutions. After drying the leaf discs were infested with adult white flies. The samples were checked for mortality 6 days after incubation.

CCn1c(C(F)(F)F)cc2nc(-c3nc(C(=O)O)ccc3S(=O)(=O)CC)n(C)c2c1=O [Compound A4, 6-[5-ethyl-3-methyl-4-oxo-6-(trifluoromethyl)imidazo[4,5-c]pyridin-2-yl]-5-ethylsulfonyl-pyridine-2-carboxylic acid]
≥ 80%: mortality at 200 ppm (Tetranychus urticae)

CCn1c(C(F)(F)F)cc2nc(-c3ncc(N(C)S(C)(=O)=O)cc3S(=O)(=O)CC)n(C)c2c1=O [Compound A13, N-[6-[5-ethyl-3-methyl-4-oxo-6-(trifluoromethyl)imidazo[4,5-c]pyridin-2-yl]-5-ethylsulfonyl-3-pyridyl]-N-methyl-methanesulfonamide]
≥ 80%: percent effect (mortality or growth inhibition) at 200 ppm (Plutella xylostella) | mortality at 200 ppm (Tetranychus urticae) | percent control (mortality, anti-feeding effect or growth inhibition) at 200 ppm (Spodoptera littoralis) | mortality at 200 ppm (Myzus persicae [1]) | percent effect (mortality or growth inhibition) at 200 ppm (Euschistus heros)

CCn1c(C(F)(F)F)cc2nc(-c3ncc(C(=O)NC4CC4)cc3S(=O)(=O)CC)n(C)c2c1=O [Compound A19, N-cyclopropyl-6-[5-ethyl-3-methyl-4-oxo-6-(trifluoromethyl)imidazo[4,5-c]pyridin-2-yl]-5-ethylsulfonyl-pyridine-3-carboxamide]
≥ 80%: percent effect (mortality or growth inhibition) at 200 ppm (Plutella xylostella) | mortality at 200 ppm (Tetranychus urticae) | mortality at 24 ppm (Myzus persicae [2]) | percent effect (mortality or growth inhibition) at 200 ppm (Euschistus heros)

CCn1c(C(F)(F)F)cc2nc(-c3ncc(NC4(C#N)CC4)cc3S(=O)(=O)CC)n(C)c2c1=O [Compound A24, 1-[[6-[5-ethyl-3-methyl-4-oxo-6-(trifluoromethyl)imidazo[4,5-c]pyridin-2-yl]-5-ethylsulfonyl-3-pyridyl]amino]cyclopropanecarbonitrile]
≥ 80%: percent effect (mortality or growth inhibition) at 200 ppm (Plutella xylostella) | mortality at 200 ppm (Tetranychus urticae) | effect mortality or growth inhibition at 200 ppm (Diabrotica balteata) | percent control (mortality, anti-feeding effect or growth inhibition) at 200 ppm (Spodoptera littoralis) | percent effect (mortality or growth inhibition) at 200 ppm (Euschistus heros)

CCn1c(C(F)(F)F)cc2nc(-c3nc(N(CC(F)(F)F)C(=O)C4CC4)ccc3S(=O)(=O)CC)n(C)c2c1=O [Compound A32, N-[6-[5-ethyl-3-methyl-4-oxo-6-(trifluoromethyl)imidazo[4,5-c]pyridin-2-yl]-5-ethylsulfonyl-2-pyridyl]-N-(2,2,2-trifluoroethyl)cyclopropanecarboxamide]
≥ 80%: percent effect (mortality or growth inhibition) at 200 ppm (Plutella xylostella) | mortality at 200 ppm (Tetranychus urticae) | effect mortality or growth inhibition at 200 ppm (Diabrotica balteata) | percent control (mortality, anti-feeding effect or growth inhibition) at 200 ppm (Spodoptera littoralis)

CCn1c(C(F)(F)F)cc2nc(-c3nc(NCC(F)(F)F)ccc3S(=O)(=O)CC)n(C)c2c1=O [Compound A34, 5-ethyl-2-[3-ethylsulfonyl-6-(2,2,2-trifluoroethylamino)-2-pyridyl]-3-methyl-6-(trifluoromethyl)imidazo[4,5-c]pyridin-4-one]
≥ 80%: percent effect (mortality or growth inhibition) at 200 ppm (Plutella xylostella) | mortality at 200 ppm (Tetranychus urticae) | effect mortality or growth inhibition at 200 ppm (Diabrotica balteata) | percent control (mortality, anti-feeding effect or growth inhibition) at 200 ppm (Spodoptera littoralis)

CCn1c(C(F)(F)F)cc2nc(-c3ncc(NC(=O)OC(C)(C)C)cc3S(=O)(=O)CC)n(C)c2c1=O [Compound A64, tert-butyl N-[6-[5-ethyl-3-methyl-4-oxo-6-(trifluoromethyl)imidazo[4,5-c]pyridin-2-yl]-5-ethylsulfonyl-3-pyridyl]carbamate]
≥ 80%: percent effect (mortality or growth inhibition) at 200 ppm (Plutella xylostella) | mortality at 200 ppm (Tetranychus urticae) | percent control (mortality, anti-feeding effect or growth inhibition) at 200 ppm (Spodoptera littoralis) | mortality at 200 ppm (Bemisia tabaci) | percent effect (mortality or growth inhibition) at 200 ppm (Euschistus heros)

CCn1c(C(F)(F)F)cc2nc(-c3nc(N)c(C4CC4)cc3S(=O)(=O)CC)n(C)c2c1=O [Compound A71]
≥ 80%: percent effect (mortality or growth inhibition) at 200 ppm (Plutella xylostella) | mortality at 200 ppm (Tetranychus urticae) | effect mortality or growth inhibition at 200 ppm (Diabrotica balteata) | mortality at 24 ppm (Myzus persicae [2]) | percent control (mortality, anti-feeding effect or growth inhibition) at 200 ppm (Spodoptera littoralis) | mortality at 200 ppm (Bemisia tabaci) | mortality at 200 ppm (Myzus persicae [1]) | percent effect (mortality or growth inhibition) at 200 ppm (Euschistus heros)
